Data published in US20260076983A1, “CANNABINOIDS COMPOSITIONS WITH POLYUNSATURATED FATTY ACID MONOGLYCERIDES AS A SPECIFIC COX-2 INHIBITOR, METHODS AND USES THEREOF” (SCF PHARMA INC., priority 2022, published 2026).

Molecular target: T1, COX-2 enzyme (Homo sapiens, UniProt P35354)
T1 construct: PGE2 levels in lipopolysaccharide (LPS)-challenged human whole blood; from tissue; host or cells: human whole blood (heparin tube) from one volunteer, LPS-challenged ex vivo
T1 sequence (P35354 18-604): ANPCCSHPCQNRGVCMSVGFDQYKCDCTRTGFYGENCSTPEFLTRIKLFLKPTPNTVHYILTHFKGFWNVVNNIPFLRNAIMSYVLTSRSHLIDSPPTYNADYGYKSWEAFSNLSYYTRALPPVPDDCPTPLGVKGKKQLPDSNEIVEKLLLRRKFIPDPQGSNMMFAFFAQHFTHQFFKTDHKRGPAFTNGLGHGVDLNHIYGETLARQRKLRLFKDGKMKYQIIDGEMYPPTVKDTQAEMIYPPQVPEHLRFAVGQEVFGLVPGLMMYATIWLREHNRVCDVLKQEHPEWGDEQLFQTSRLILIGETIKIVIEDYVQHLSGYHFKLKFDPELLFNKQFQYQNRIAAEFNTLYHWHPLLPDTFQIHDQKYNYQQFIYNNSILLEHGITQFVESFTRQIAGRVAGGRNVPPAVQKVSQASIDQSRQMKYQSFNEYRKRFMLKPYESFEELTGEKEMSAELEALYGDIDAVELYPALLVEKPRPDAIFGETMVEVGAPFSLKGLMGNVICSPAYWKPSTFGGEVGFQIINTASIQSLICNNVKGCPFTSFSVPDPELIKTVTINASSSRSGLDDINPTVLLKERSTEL
Assay: PGE2 levels in LPS-challenged human whole blood after oral capsules (human case study)
Format: in vivo
Settings: cross-over, blood 3.5 h after dosing
Protocol: 200 mg of cannabidiol (CBD) dissolved in 2.0 g of MCT oil, 2.0 g of compound of formula (IV) alone and 200 mg of cannabidiol (CBD) dissolved in 2.0 g of compound of formula (IV) were separately encapsulated in four (4) hard gel capsules (size 00) for a cross over COX-2 case study. A pilot cross-over case study was conducted in one volunteer over a three (3) week periods with one experiment per week. In the morning of the experiment, 10 ml of blood was collected in heparin tube from the volunteer fasted for 10 h. The four (4) hard gel capsules were swallowed with a glass of water and blood collection was repeated after 3.5 h. PGE2 levels in lipopolysaccharide (LPS)-challenged human whole blood was measured as biochemical index for cyclooxygenase COX-2 activity (Brideau C, Kargman S, Liu S, Dallob A L, Ehrich E W, Rodger I W, Chan C C. A human whole blood assay for clinical evaluation of biochemical efficacy of cyclooxygenase inhibitors. Inflamm Res. 1996 February; 45(2):68-74. doi: 10.1007/BF02265118. PMID: 8907587).
100 mg of cannabidiol (CBD) dissolved in 2.0 g of compound of formula (IV) was encapsulated in four (4) hard gel capsules (size 00) for COX-1 and COX-2 case study. A pilot case study was conducted in one volunteer. In the morning of the case study, 20 ml of blood was collected (1×10 ml serum tube and 1×10 ml heparin tube) from the volunteer fasted for 10 h. […]

- inhibition of the COX-2 enzyme (Example 1, one volunteer, oral hard gel capsules, 200 mg CBD in 2.0 g MCT oil, 2.0 g compound of formula (IV) alone, 200 mg CBD in 2.0 g compound of formula (IV)): 10%
- inhibition of the COX-2 enzyme (in words) (Example 3, one volunteer, 2.0 g compound of formula (IV), oral capsules): mild inhibition
Structure (SMILES): CC/C=C\C/C=C\C/C=C\C/C=C\C/C=C\CCCC(=O)OCC(O)CO (centres unmarked) [compound of formula (IV)]
